{"source": "PubChem BioAssay (NCI)", "note": "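The compound was tested at five concentrations on cells cultured in 96-well plates, with a 48-hour exposure period. GI50 is the concentration that inhibits growth by half. TGI denotes the concentration required for complete inhibition of growth.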", "data": [{"tested_on": "UACC-62 melanoma", "assay": "growth of human tumour cells (NCI), 48 h", "units": {"TGI": "µM", "GI50": "µM"}, "values": [{"smiles": "O=C(c1ccccc1Br)C(F)(F)F", "TGI": "> 100"}, {"smiles": "CO/N=C(\\COc1ccc2c(c1)oc(=O)c1cc(OC)ccc12)c1ccc(OC)cc1", "GI50": "> 100", "TGI": "> 100"}, {"smiles": "COc1ccc(NC(=O)/C(Cc2cc(=O)oc3cc(O)ccc23)=N\\NC(C)(C)C)c(OC)c1", "TGI": "> 100"}, {"smiles": "O=C1/C(=C/c2ccc3c(c2)OCO3)SC2C=Nc3ccccc3N12", "note": "(stereo not drawn)", "TGI": "> 100"}, {"smiles": "CCOc1ccc(NC(=O)C(=O)CC(=O)c2c(C)n([O-])c3ccccc3[n+]2=O)cc1", "TGI": "> 100"}, {"smiles": "Clc1ccc2[nH]cc(-c3nnnn3-c3ccccc3)c2c1", "GI50": 11.2, "TGI": "> 100"}, {"smiles": "CCCC(=O)Nc1cc2c3c(c1)CCCN3CCC2", "TGI": "> 10"}, {"smiles": "Cc1cc(Cl)ccc1NC(=O)C(=O)Cc1nc2ccccc2o1", "TGI": "> 100"}, {"smiles": "OCC1OC(c2nc(C3=NCCCN3)cs2)C(O)C1O", "note": "(stereo not drawn)", "TGI": "> 100"}, {"smiles": "COc1cc(-c2cc(-c3cc4c([nH]c5ccccc54)c(-c4cc(OC)c(OC)c(OC)c4)n3)cc(-c3ccccc3)n2)cc(OC)c1OC", "GI50": 2.9, "TGI": 18}, {"smiles": "O=C1C=CC(=O)c2cc3cc(CBr)ccc3cc21", "GI50": 5.61, "TGI": 15.6}, {"smiles": "CCC(C)COC(=O)c1ccc(N=Cc2ccc(C=Nc3ccc(C(=O)OCC(C)CC)cc3)cc2)cc1", "note": "(stereo not drawn)", "TGI": "> 100"}, {"smiles": "Cc1cc(N(CCC#N)CCC#N)ccc1N=Nc1ccc(C(=O)O)cc1", "TGI": "> 100"}, {"smiles": "CN(C)CC1CCCC/C1=N/OC(=O)c1ccc(Cl)cc1", "note": "(stereo not drawn)", "TGI": "> 100"}, {"smiles": "N#CC(C(=O)C(=O)C(C#N)c1ccc(Br)cc1)c1ccc(Br)cc1", "note": "(stereo not drawn)", "TGI": 7.03}, {"smiles": "COc1cccc(C2=NC(C(C)C)CO2)c1", "note": "(stereo not drawn)", "TGI": "> 100"}, {"smiles": "CCOC(=O)C(=[N+]=[N-])[Si](C)(C)C", "TGI": "> 100"}, {"smiles": "CCOC(=O)Nc1ccc(-c2nc(-c3cccc(OCCN4CCOCC4)c3)c(-c3ccnc(Br)c3)[nH]2)cc1", "GI50": 2.26, "TGI": 7.14}, {"smiles": "CCCc1nc(NC#N)nc(C(=O)Nc2ccccc2)c1CC", "TGI": "> 100"}, {"smiles": "CCCN1C(=O)N(CCC)C2C1NC(=S)N2/N=C/C=C/c1ccccc1OC", "note": "(stereo not drawn)", "GI50": 0.599, "TGI": 47}, {"smiles": "O=C(CCc1n[nH]c(=S)o1)Nc1ccccc1C(F)(F)F", "TGI": "> 100"}, {"smiles": "COc1cc2c(cc1OCCCNC(=O)c1cccc3c(=O)c4ccccc4[nH]c13)N=C[C@@H]1CCCN1C2=O", "GI50": "< 0.01", "TGI": "< 0.01"}, {"smiles": "Cc1ccc(NC(=O)CCc2cc(C(C)(C)C)nc(=S)[nH]2)cc1C", "TGI": "> 100"}, {"smiles": "Cc1[nH]c2ccccc2c1C(=O)/C=C/c1ccccc1O", "TGI": "> 100"}, {"smiles": "O=C(Nc1nc(=S)c2c(ncn2CCOC(=O)c2ccccc2)[nH]1)c1ccccc1", "TGI": "> 100"}, {"smiles": "COc1ccc(CC2NCCc3c2[nH]c2ccccc32)cc1", "note": "(stereo not drawn)", "TGI": "> 100"}, {"smiles": "CCOc1ccc(NC(=O)CC#N)cc1", "TGI": "> 100"}, {"smiles": "O=C(/C=C/c1cccc2ccccc12)c1ccccc1Cl", "TGI": 27.3}, {"smiles": "COc1ccc2c(c1)C(=O)c1c-2c(N2CCN(C(=O)CNCCNCCO)CC2)nc2ccccc12", "GI50": 2.82, "TGI": 8.64}, {"smiles": "Cc1ccc(/C=C/C(=O)c2sc(-c3nc(C)c(C(=O)/C=C/c4ccc(C)cc4)s3)nc2C)cc1", "TGI": "> 100"}, {"smiles": "O=C1/C(=C/c2ccc(Cl)cc2)CCC1CCN1CCOCC1", "note": "(stereo not drawn)", "TGI": "> 100"}, {"smiles": "CCC[CH2][Sn]([Cl])([CH2]CCC)[CH2]CCC", "GI50": 0.135, "TGI": 0.373}, {"smiles": "O=c1ccn([C@H]2CSC[C@@H](CO)C2)c(=O)[nH]1", "TGI": "> 100"}, {"smiles": "C1CN2CCN3CCN4CCN1[P+]243", "TGI": "> 100"}]}, {"tested_on": "SF-539 CNS", "assay": "growth of human tumour cells (NCI), 48 h", "units": {"GI50": "µM", "TGI": "µM"}, "values": [{"smiles": "CN(C)CC[PH+](c1ccccc1)c1ccccc1.CN(C)CC[PH+](c1ccccc1)c1ccccc1.[Cl-].[Pd+2]", "GI50": "> 100", "TGI": "> 100"}, {"smiles": "O=C(c1ccccc1)c1cc2ccccc2o1", "GI50": "> 100", "TGI": "> 100"}, {"smiles": "O=C(Nc1ccncc1)C(=O)c1cn(S(=O)(=O)c2ccc(F)cc2)c2ccccc12", "GI50": 2.1, "TGI": 53.7}, {"smiles": "C=C(C)[C@@H]1CC[C@]2(C)[C@H](CC=C3[C@@H]4CC(C)(C)CC[C@]4(C(N)=O)CC[C@]32C)[C@@]1(C)CCC#N", "GI50": 3.04, "TGI": 13.6}, {"smiles": "O=C(c1ccccc1Br)C(F)(F)F", "TGI": "> 100"}, {"smiles": "CO/N=C(\\COc1ccc2c(c1)oc(=O)c1cc(OC)ccc12)c1ccc(OC)cc1", "GI50": "> 100", "TGI": "> 100"}, {"smiles": "COc1ccc(NC(=O)/C(Cc2cc(=O)oc3cc(O)ccc23)=N\\NC(C)(C)C)c(OC)c1", "TGI": "> 100"}, {"smiles": "O=C1/C(=C/c2ccc3c(c2)OCO3)SC2C=Nc3ccccc3N12", "note": "(stereo not drawn)", "TGI": "> 100"}, {"smiles": "CCOc1ccc(NC(=O)C(=O)CC(=O)c2c(C)n([O-])c3ccccc3[n+]2=O)cc1", "TGI": "> 100"}, {"smiles": "Clc1ccc2[nH]cc(-c3nnnn3-c3ccccc3)c2c1", "GI50": 16.5, "TGI": 39}, {"smiles": "CCCC(=O)Nc1cc2c3c(c1)CCCN3CCC2", "TGI": "> 10"}, {"smiles": "Cc1cc(Cl)ccc1NC(=O)C(=O)Cc1nc2ccccc2o1", "TGI": "> 100"}, {"smiles": "OCC1OC(c2nc(C3=NCCCN3)cs2)C(O)C1O", "note": "(stereo not drawn)", "TGI": "> 100"}, {"smiles": "COc1cc(-c2cc(-c3cc4c([nH]c5ccccc54)c(-c4cc(OC)c(OC)c(OC)c4)n3)cc(-c3ccccc3)n2)cc(OC)c1OC", "GI50": 4.97, "TGI": 44.4}, {"smiles": "CCC(C)COC(=O)c1ccc(N=Cc2ccc(C=Nc3ccc(C(=O)OCC(C)CC)cc3)cc2)cc1", "note": "(stereo not drawn)", "TGI": "> 100"}, {"smiles": "Cc1cc(N(CCC#N)CCC#N)ccc1N=Nc1ccc(C(=O)O)cc1", "TGI": "> 100"}, {"smiles": "CN(C)CC1CCCC/C1=N/OC(=O)c1ccc(Cl)cc1", "note": "(stereo not drawn)", "TGI": "> 100"}, {"smiles": "N#CC(C(=O)C(=O)C(C#N)c1ccc(Br)cc1)c1ccc(Br)cc1", "note": "(stereo not drawn)", "TGI": 29.4}, {"smiles": "COc1cccc(C2=NC(C(C)C)CO2)c1", "note": "(stereo not drawn)", "TGI": "> 100"}, {"smiles": "CCOC(=O)C(=[N+]=[N-])[Si](C)(C)C", "TGI": "> 100"}, {"smiles": "CCOC(=O)Nc1ccc(-c2nc(-c3cccc(OCCN4CCOCC4)c3)c(-c3ccnc(Br)c3)[nH]2)cc1", "GI50": 2.08, "TGI": 7.48}, {"smiles": "CCCc1nc(NC#N)nc(C(=O)Nc2ccccc2)c1CC", "TGI": "> 100"}, {"smiles": "CCCN1C(=O)N(CCC)C2C1NC(=S)N2/N=C/C=C/c1ccccc1OC", "note": "(stereo not drawn)", "GI50": 0.33, "TGI": 2.31}, {"smiles": "O=C(CCc1n[nH]c(=S)o1)Nc1ccccc1C(F)(F)F", "TGI": "> 100"}, {"smiles": "COc1cc2c(cc1OCCCNC(=O)c1cccc3c(=O)c4ccccc4[nH]c13)N=C[C@@H]1CCCN1C2=O", "GI50": "< 0.01", "TGI": "< 0.01"}, {"smiles": "Cc1ccc(NC(=O)CCc2cc(C(C)(C)C)nc(=S)[nH]2)cc1C", "TGI": "> 100"}, {"smiles": "O=C(Nc1nc(=S)c2c(ncn2CCOC(=O)c2ccccc2)[nH]1)c1ccccc1", "TGI": 94.3}, {"smiles": "COc1ccc(CC2NCCc3c2[nH]c2ccccc32)cc1", "note": "(stereo not drawn)", "TGI": "> 100"}, {"smiles": "O=C(/C=C/c1cccc2ccccc12)c1ccccc1Cl", "TGI": 31.9}, {"smiles": "COc1ccc2c(c1)C(=O)c1c-2c(N2CCN(C(=O)CNCCNCCO)CC2)nc2ccccc12", "GI50": 3.08, "TGI": 10.6}, {"smiles": "Cc1ccc(/C=C/C(=O)c2sc(-c3nc(C)c(C(=O)/C=C/c4ccc(C)cc4)s3)nc2C)cc1", "TGI": "> 100"}, {"smiles": "O=C1/C(=C/c2ccc(Cl)cc2)CCC1CCN1CCOCC1", "note": "(stereo not drawn)", "TGI": "> 100"}, {"smiles": "O=c1ccn([C@H]2CSC[C@@H](CO)C2)c(=O)[nH]1", "TGI": "> 100"}, {"smiles": "C1CN2CCN3CCN4CCN1[P+]243", "TGI": "> 100"}]}, {"tested_on": "MDA-MB-435", "assay": "growth of human tumour cells (NCI), 48 h", "units": {"GI50": "µM", "TGI": "µM"}, "values": [{"smiles": "CN(C)CC[PH+](c1ccccc1)c1ccccc1.CN(C)CC[PH+](c1ccccc1)c1ccccc1.[Cl-].[Pd+2]", "GI50": "> 100", "TGI": "> 100"}, {"smiles": "COc1cc(NCc2ccc3nc(N)nc(N)c3c2C)cc(OC)c1OC", "note": "(tested in a mixture with another compound)", "GI50": 0.000388, "TGI": 50.1}, {"smiles": "O=C(c1ccccc1)c1cc2ccccc2o1", "GI50": "> 100", "TGI": "> 100"}, {"smiles": "C=C(C)[C@@H]1CC[C@]2(C)[C@H](CC=C3[C@@H]4CC(C)(C)CC[C@]4(C(N)=O)CC[C@]32C)[C@@]1(C)CCC#N", "GI50": 3.21, "TGI": 20.5}, {"smiles": "O=C(c1ccccc1Br)C(F)(F)F", "TGI": "> 100"}, {"smiles": "CO/N=C(\\COc1ccc2c(c1)oc(=O)c1cc(OC)ccc12)c1ccc(OC)cc1", "GI50": "> 100", "TGI": "> 100"}, {"smiles": "Clc1ccc2[nH]cc(-c3nnnn3-c3ccccc3)c2c1", "GI50": 1.64, "TGI": 4.16}, {"smiles": "CCCC(=O)Nc1cc2c3c(c1)CCCN3CCC2", "TGI": "> 10"}, {"smiles": "O=C1C=CC(=O)c2cc3cc(CBr)ccc3cc21", "GI50": 11.8, "TGI": 33.7}, {"smiles": "CCOC(=O)Nc1ccc(-c2nc(-c3cccc(OCCN4CCOCC4)c3)c(-c3ccnc(Br)c3)[nH]2)cc1", "GI50": 3.07, "TGI": 47.6}, {"smiles": "COc1ccc2c(c1)C(=O)c1c-2c(N2CCN(C(=O)CNCCNCCO)CC2)nc2ccccc12", "GI50": 8.18, "TGI": 28.5}]}]}
